target: human PAD4 (hPAD4) (Homo sapiens (Human), UniProt Q9UM07); experiment: RFMS Human PAD4 Functional Assay 1; type: biochemical; settings: RFMS assay 1; 5 nM hPAD4, 250 μM BAEE substrate, 50 μM calcium, 37° C.
In short: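 Recombinant hPAD4 (5 nM) was preincubated with compound (top 50 μM, 0.5% DMSO) for 30 min at 37 °C, then reacted with 250 μM BAEE for 90 min at 37 °C in pH 7.5 HEPES buffer with 50 μM calcium and 5 μM TPEN. Product was derivatized with phenyl glyoxal and quantified by RapidFire MS.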

human PAD4 (hPAD4), sequence (Q9UM07 whole entry): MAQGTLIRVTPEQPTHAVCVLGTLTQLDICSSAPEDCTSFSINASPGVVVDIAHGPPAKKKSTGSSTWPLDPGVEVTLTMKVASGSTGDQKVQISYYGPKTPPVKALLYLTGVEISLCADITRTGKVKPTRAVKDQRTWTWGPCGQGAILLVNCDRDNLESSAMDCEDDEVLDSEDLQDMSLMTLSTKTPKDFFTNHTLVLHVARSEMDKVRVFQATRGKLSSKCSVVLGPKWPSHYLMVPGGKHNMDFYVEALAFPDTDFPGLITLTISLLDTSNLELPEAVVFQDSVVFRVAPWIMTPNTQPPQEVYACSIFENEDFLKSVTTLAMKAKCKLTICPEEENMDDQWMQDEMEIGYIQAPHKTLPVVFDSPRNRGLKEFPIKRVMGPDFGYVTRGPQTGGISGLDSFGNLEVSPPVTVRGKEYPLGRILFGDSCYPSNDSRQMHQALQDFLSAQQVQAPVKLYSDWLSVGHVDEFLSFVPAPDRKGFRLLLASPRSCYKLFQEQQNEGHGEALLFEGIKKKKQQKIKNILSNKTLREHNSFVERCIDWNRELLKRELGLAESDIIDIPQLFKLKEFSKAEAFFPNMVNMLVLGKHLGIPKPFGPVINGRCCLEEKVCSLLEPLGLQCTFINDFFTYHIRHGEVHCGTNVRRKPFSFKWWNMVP

Row | Structure (SMILES) | IC50 [nM]
1 | COc1cc(C(=O)N2CC3CCC2[C@@H]3N)cn2nc(-c3cc4ccc(-c5ccc6c(c5)C(=O)NC6)nc4n3CC3CC3)c(C)c12 (stereo partly drawn) [Example 3, 6-(2-(6-((7R)-7-Amino-2-azabicyclo[2.2.1]heptane-2-carbonyl)-4-methoxy-3-methylpyrazolo[1,5-a]pyridin-2-yl)-1-(cyclopropylmethyl)-1H-pyrrolo[2,3-b]pyridin-6-yl)isoindolin-1-one] | 60
2 | COc1cc(C(=O)N2CC3CCC2[C@@H]3N)cn2nc(-c3cc4ccc(C)nc4n3CC3CC3)c(C)c12 (stereo partly drawn) [Example 4, ((7R)-7-Amino-2-azabicyclo[2.2.1]heptan-2-yl)(2-(1-(cyclopropylmethyl)-6-methyl-1H-pyrrolo[2,3-b]pyridin-2-yl)-4-methoxy-3-methylpyrazolo[1,5-a]pyridin-6-yl)methanone] | 68
3 | COc1cc(C(=O)N2CC3CCC2[C@@H]3N)cn2nc(-c3cc4ccc(-c5ccc6c(c5)CNC6=O)nc4n3CC3CC3)c(C)c12 (stereo partly drawn) [Example 5, 5-(2-(6-((7R)-7-Amino-2-azabicyclo[2.2.1]-heptane-2-carbonyl)-4-methoxy-3-methylpyrazolo[1,5-a]pyridin-2-yl)-1-(cyclopropylmethyl)-1H-pyrrolo[2,3-b]pyridin-6-yl)isoindolin-1-one] | 27
4 | COc1cc(C(=O)N2CC3CCC2[C@@H]3N)cn2nc(-c3cc4ccc(C5CC5)nc4n3CC3CC3)c(C)c12 (stereo partly drawn) [Example 6, ((7R)-7-Amino-2-azabicyclo[2.2.1]heptan-2-yl)(2-(6-cyclopropyl-1-(cyclopropylmethyl)-1H-pyrrolo[2,3-b]pyridin-2-yl)-4-methoxy-3-methylpyrazolo[1,5-a]pyridin-6-yl)methanone] | 32
5 | COc1cc(C(=O)N2CC3CCC2[C@@H]3N)cn2nc(-c3cc4ccc(-c5cnn(C(C)C)c5)nc4n3CC3CC3)c(C)c12 (stereo partly drawn) [Example 7, ((7R)-7-Amino-2-azabicyclo[2.2.1]heptan-2-yl)(2-(1-(cyclopropylmethyl)-6-(1-isopropyl-1H-pyrazol-4-yl)-1H-pyrrolo[2,3-b]pyridin-2-yl)-4-methoxy-3-methylpyrazolo[1,5-a]pyridin-6-yl)methanone] | 412
6 | COc1cc(C(=O)N2CC3CCC2[C@@H]3N)cn2nc(-c3cc4ccc(-c5ccn6c(C)nnc6c5)nc4n3CC3CC3)c(C)c12 (stereo partly drawn) [Example 8, ((7R)-7-Amino-2-azabicyclo[2.2.1]heptan-2-yl)(2-(1-(cyclopropylmethyl)-6-(3-methyl-[1,2,4]triazolo[4,3-a]pyridin-7-yl)-1H-pyrrolo[2,3-b]pyridin-2-yl)-4-methoxy-3-methylpyrazolo[1,5-a]pyridin-6-yl)methanone] | 37
7 | COc1cc(C(=O)N2CC3CCC2[C@@H]3N)cn2nc(-c3cc4ccc(-c5cccc(O)c5F)nc4n3CC3CC3)c(C)c12 (stereo partly drawn) [Example 9, ((7R)-7-Amino-2-azabicyclo[2.2.1]heptan-2-yl)(2-(1-(cyclopropylmethyl)-6-(2-fluoro-3-hydroxyphenyl)-1H-pyrrolo[2,3-b]pyridin-2-yl)-4-methoxy-3-methylpyrazolo[1,5-a]pyridin-6-yl)methanone] | 120
8 | COc1cc(C(=O)N2CC3CCC2[C@@H]3N)cn2nc(-c3cc4ccc(-c5ccc(O)c(F)c5)nc4n3CC3CC3)c(C)c12 (stereo partly drawn) [Example 10, ((7R)-7-Amino-2-azabicyclo[2.2.1]heptan-2-yl)(2-(1-(cyclopropylmethyl)-6-(3-fluoro-4-hydroxyphenyl)-1H-pyrrolo[2,3-b]pyridin-2-yl)-4-methoxy-3-methylpyrazolo[1,5-a]pyridin-6-yl)methanone] | 159
9 | COc1cc(C(=O)N2CC3CCC2[C@@H]3N)cn2nc(-c3cc4ccc(-c5ccc(OC(F)F)cc5)nc4n3CC3CC3)c(C)c12 (stereo partly drawn) [Example 11, ((7R)-7-Amino-2-azabicyclo[2.2.1]heptan-2-yl)(2-(1-(cyclopropylmethyl)-6-(4-(difluoromethoxy)phenyl)-1H-pyrrolo[2,3-b]pyridin-2-yl)-4-methoxy-3-methylpyrazolo[1,5-a]pyridin-6-yl)methanone] | 1370
10 | COc1cc(C(=O)N2CC3CCC2[C@@H]3N)cn2nc(-c3cc4ccc(-c5ccc(OC(F)F)c(F)c5)nc4n3CC3CC3)c(C)c12 (stereo partly drawn) [Example 12, ((7R)-7-Amino-2-azabicyclo[2.2.1]heptan-2-yl)(2-(1-(cyclopropylmethyl)-6-(4-(difluoromethoxy)-3-fluorophenyl)-1H-pyrrolo[2,3-b]pyridin-2-yl)-4-methoxy-3-methylpyrazolo[1,5-a]pyridin-6-yl)methanone] | 2320
11 | COc1cc(C(=O)N2CC3CCC2[C@@H]3N)cn2nc(-c3cc4ccc(N5CC(OC)C5)nc4n3CC3CC3)c(C)c12 (stereo partly drawn) [Example 13, ((7R)-7-Amino-2-azabicyclo[2.2.1]heptan-2-yl)(2-(1-(cyclopropylmethyl)-6-(3-methoxyazetidin-1-yl)-1H-pyrrolo[2,3-b]pyridin-2-yl)-4-methoxy-3-methylpyrazolo[1,5-a]pyridin-6-yl)methanone] | 163
12 | COc1cc(C(=O)N2C[C@H](N)C[C@@H](F)C2)cn2nc(-c3cc4cccnc4n3CC3CC3)c(C)c12 [Example 14, ((3R,5R)-3-Amino-5-fluoropiperidin-1-yl)(2-(1-(cyclopropylmethyl)-1H-pyrrolo[2,3-b]pyridin-2-yl)-4-methoxy-3-methylpyrazolo[1,5-a]pyridin-6-yl)methanone] | 906
13 | COc1cc(C(=O)N2C[C@H](N)C[C@@H](F)C2)cn2nc(-c3cc4ccc(-c5ccc6c(c5)C(=O)NC6)nc4n3CC3CC3)c(C)c12 [Example 16, 6-(2-(6-((3R,5R)-3-Amino-5-fluoropiperidine-1-carbonyl)-4-methoxy-3-methylpyrazolo[1,5-a]pyridin-2-yl)-1-(cyclopropylmethyl)-1H-pyrrolo[2,3-b]pyridin-6-yl)isoindolin-1-one] | 407
14 | COc1cc(C(=O)N2C[C@H](N)C[C@@H](F)C2)cn2nc(-c3cc4ccc(C)nc4n3CC3CC3)c(C)c12 [Example 17, ((3R,5R)-3-Amino-5-fluoropiperidin-1-yl)(2-(1-(cyclopropylmethyl)-6-methyl-1H-pyrrolo[2,3-b]pyridin-2-yl)-4-methoxy-3-methylpyrazolo[1,5-a]pyridin-6-yl)-methanone] | 75
15 | COc1cc(C(=O)N2C[C@H](N)C[C@@H](F)C2)cn2nc(-c3cc4ccc(C5CC5)nc4n3CC3CC3)c(C)c12 [Example 19, ((3R,5R)-3-Amino-5-fluoropiperidin-1-yl)(2-(6-cyclopropyl-1-(cyclopropylmethyl)-1H-pyrrolo[2,3-b]pyridin-2-yl)-4-methoxy-3-methylpyrazolo[1,5-a]pyridin-6-yl)methanone] | 168
16 | COc1cc(C(=O)N2C[C@H](N)C[C@@H](F)C2)cn2nc(-c3cc4ccc(-c5ccc6c(c5)CNC6=O)nc4n3CC3CC3)c(C)c12 [Example 20, 5-(2-(6-((3R,5R)-3-Amino-5-fluoropiperidine-1-carbonyl)-4-methoxy-3-methylpyrazolo[l,5-a]pyridin-2-yl)-1-(cyclopropylmethyl)-1H-pyrrolo[2,3-b]pyridin-6-yl)isoindolin-1-one] | 116
17 | COc1cc(C(=O)N2C[C@H](N)C[C@@H](F)C2)cn2nc(-c3cc4ccc(-c5ccn6c(C)nnc6c5)nc4n3CC3CC3)c(C)c12 [Example 21, ((3R,5R)-3-Amino-5-fluoropiperidin-1-yl)(2-(1-(cyclopropylmethyl)-6-(3-methyl-[1,2,4]triazolo[4,3-a]pyridin-7-yl)-1H-pyrrolo[2,3-b]pyridin-2-yl)-4-methoxy-3-methylpyrazolo[1,5-a]pyridin-6-yl)methanone] | 91
18 | COc1cc(C(=O)N2CC3CCC2[C@@H]3N)cn2nc(-c3cc4ccccc4n3CC3CC3)c(C)c12 (stereo partly drawn) [Example 22, ((7R)-7-Amino-2-azabicyclo[2.2.1]heptan-2-yl)(2-(1-(cyclopropylmethyl)-1H-indol-2-yl)-4-methoxy-3-methylpyrazolo[1,5-a]pyridin-6-yl)methanone] | 2150
19 | COc1cc(C(=O)N2CC3CCC2[C@@H]3N)cn2nc(-c3cc4ccc(-c5ccc6c(c5)C(=O)NC6)cc4n3CC3CC3)c(C)c12 (stereo partly drawn) [Example 23, 6-(2-(6-((7R)-7-Amino-2-azabicyclo[2.2.1]heptane-2-carbonyl)-4-methoxy-3-methylpyrazolo[1,5-a]pyridin-2-yl)-1-(cyclopropylmethyl)-1H-indol-6-yl)isoindolin-1-one] | 108
20 | COc1cc(C(=O)N2CC3CCC2[C@@H]3N)cn2nc(-c3cc4ccc(-c5ccc6c(c5)CNC6=O)cc4n3CC3CC3)c(C)c12 (stereo partly drawn) [Example 24, 5-(2-(6-((7R)-7-Amino-2-azabicyclo[2.2.1]heptane-2-carbonyl)-4-methoxy-3-methylpyrazolo[1,5-a]pyridin-2-yl)-1-(cyclopropylmethyl)-1H-indol-6-yl)isoindolin-1-one] | 31
21 | COc1cc(C(=O)N2CC3CCC2[C@@H]3N)cn2nc(-c3cc4ccc(-c5ccn6c(C)nnc6c5)cc4n3CC3CC3)c(C)c12 (stereo partly drawn) [Example 25, ((7R)-7-Amino-2-azabicyclo[2.2.1]heptan-2-yl)(2-(1-(cyclopropylmethyl)-6-(3-methyl-[1,2,4]triazolo[4,3-a]pyridin-7-yl)-1H-indol-2-yl)-4-methoxy-3-methylpyrazolo[1,5-a]pyridin-6-yl)methanone] | 17
22 | COc1cc(C(=O)N2CC3CCC2[C@@H]3N)cn2nc(-c3cc4ccc(-c5ccc(OC(F)F)cc5)cc4n3CC3CC3)c(C)c12 (stereo partly drawn) [Example 26, ((7R)-7-Amino-2-azabicyclo[2.2.1]heptan-2-yl)(2-(1-(cyclopropylmethyl)-6-(4-(difluoromethoxy)phenyl)-1H-indol-2-yl)-4-methoxy-3-methylpyrazolo[1,5-a]pyridin-6-yl)methanone] | 449
23 | COc1cc(C(=O)N2CC3CCC2[C@@H]3N)cn2nc(-c3cc4ccc(C)cc4n3CC3CC3)c(C)c12 (stereo partly drawn) [Example 27, ((7R)-7-Amino-2-azabicyclo[2.2.1]heptan-2-yl)(2-(1-(cyclopropylmethyl)-6-methyl-1H-indol-2-yl)-4-methoxy-3-methylpyrazolo[1,5-a]pyridin-6-yl)methanone] | 22
